From patent US11180484B2, “Pyrazole derivatives as plasma kallikrein inhibitors” (KALVISTA PHARMACEUTICALS LIMITED, priority 2016, dated 2021)
Several values for one entry are separate records, joined by “and”; a condition that tells them apart may be missing. Equal values may be shown once.

How the values were obtained:
[1] = biological target: plasmin (Homo sapiens (Human), UniProt P00747); assay: Determination of enzyme selectivity: plasmin; type: biochemical; details: substrate at Km concentration
Experimental: Human serine protease enzymes plasmin, thrombin and trypsin were assayed for enzymatic activity using an appropriate fluorogenic substrate. Protease activity was measured by monitoring the accumulation of liberated fluorescence from the substrate over 5 minutes. The linear rate of fluorescence increase per minute was expressed as percentage (%) activity. The Km for the cleavage of each substrate was determined by standard transformation of the Michaelis-Menten equation.

[2] = Pharmacokinetics following a single oral dose in male Sprague-Dawley rats; type: in vivo; details: rat, single po dose (nominal 10 mg/kg; actual dose per row in column Dose po), 10% DMSO/10% cremophor/80% SWFI, plasma
Experimental: Pharmacokinetic studies of the compounds in Table 13 were performed to assess the pharmacokinetics following a single oral dose in male Sprague-Dawley rats. Two rats were given a single po dose of 5 mL/kg of a nominal 2 mg/mL (10 mg/kg) composition of test compound in vehicle. Following dosing, blood samples were collected over a period of 24 hours. Sample times were 5, 15 and 30 minutes then 1, 2, 4, 6, 8 and 12 hours. Following collection, blood samples were centrifuged and the plasma fraction analysed for concentration of test compound by LCMS.

[3] = biological target: Human plasma kallikrein (Homo sapiens (Human), UniProt P03952); assay: Determination of the Ki for plasma kallikrein (mixed-model inhibition); type: biochemical; details: for Ki: human plasma kallikrein, mixed-model inhibition equation
Chain of Human plasma kallikrein (P03952 391-638): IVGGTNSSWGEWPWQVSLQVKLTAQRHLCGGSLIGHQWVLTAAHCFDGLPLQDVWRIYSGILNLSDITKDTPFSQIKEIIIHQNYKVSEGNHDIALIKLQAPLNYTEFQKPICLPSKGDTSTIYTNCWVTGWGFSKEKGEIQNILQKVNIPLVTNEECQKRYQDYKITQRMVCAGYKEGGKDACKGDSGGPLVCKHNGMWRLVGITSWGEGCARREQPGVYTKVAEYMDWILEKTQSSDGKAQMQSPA
Chain of Human plasma kallikrein (P03952 20-390): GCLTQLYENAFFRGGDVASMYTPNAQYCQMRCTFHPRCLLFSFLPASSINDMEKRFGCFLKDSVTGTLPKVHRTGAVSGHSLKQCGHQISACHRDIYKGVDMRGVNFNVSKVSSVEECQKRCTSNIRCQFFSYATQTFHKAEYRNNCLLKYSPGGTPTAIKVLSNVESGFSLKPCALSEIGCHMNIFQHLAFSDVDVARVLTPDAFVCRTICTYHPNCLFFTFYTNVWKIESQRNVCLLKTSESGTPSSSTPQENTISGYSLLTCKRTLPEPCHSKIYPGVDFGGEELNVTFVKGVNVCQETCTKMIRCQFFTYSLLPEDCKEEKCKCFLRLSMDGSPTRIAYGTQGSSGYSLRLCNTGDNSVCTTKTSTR

Chain of plasmin (P00747 581-810): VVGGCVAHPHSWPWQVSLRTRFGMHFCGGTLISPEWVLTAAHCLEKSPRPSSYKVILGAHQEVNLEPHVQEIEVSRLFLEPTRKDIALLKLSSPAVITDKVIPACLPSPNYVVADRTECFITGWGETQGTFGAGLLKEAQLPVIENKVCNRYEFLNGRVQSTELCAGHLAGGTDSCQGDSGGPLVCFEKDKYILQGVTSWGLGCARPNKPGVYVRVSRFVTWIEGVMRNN
Chain of plasmin (P00747 97-580): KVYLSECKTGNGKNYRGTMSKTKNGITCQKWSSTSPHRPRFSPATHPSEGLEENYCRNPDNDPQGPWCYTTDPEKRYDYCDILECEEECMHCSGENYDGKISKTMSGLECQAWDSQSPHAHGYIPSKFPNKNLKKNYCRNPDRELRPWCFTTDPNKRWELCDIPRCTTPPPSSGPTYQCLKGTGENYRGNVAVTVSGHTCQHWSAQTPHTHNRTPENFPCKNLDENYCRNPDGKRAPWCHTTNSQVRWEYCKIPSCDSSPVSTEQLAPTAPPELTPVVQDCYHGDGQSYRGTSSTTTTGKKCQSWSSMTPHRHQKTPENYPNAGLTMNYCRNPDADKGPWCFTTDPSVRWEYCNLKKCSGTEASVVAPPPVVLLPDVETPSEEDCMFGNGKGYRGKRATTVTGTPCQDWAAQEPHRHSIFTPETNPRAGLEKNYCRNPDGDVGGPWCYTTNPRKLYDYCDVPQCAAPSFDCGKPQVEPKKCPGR

IC50 [1] [nM] | Cmax [2] [ng/mL] | Tmax [2] [min] | Ki [3] | Alpha ([3]; parameter of the mixed-model equation indicating mechanism of inhibition) | SMILES
31200 | 187 | 30 | 0.26 nM | 1.7 | COCc1nn(Cc2ccc(Cn3ccccc3=O)cc2)cc1C(=O)NCc1c(-n2cnnn2)ccc(OC)c1F [Example 39, N-{[2-Fluoro-3-methoxy-6-(1,2,3,4-tetrazol-1-yl)phenyl]methyl}-3-(methoxymethyl)-1-({4-[(2-oxopyridin-1-yl)methyl]phenyl}methyl)pyrazole-4-carboxamide]
12000 | 807 | 45 | 0.38 nM and 0.23 nM | – | COCc1nn(Cc2cnc(N3CCCC3)nc2)cc1C(=O)NCc1c(-n2cnnn2)ccc(OC)c1F [Example 79, N-{[2-Fluoro-3-methoxy-6-(1,2,3,4-tetrazol-1-yl)phenyl]methyl}-3-(methoxymethyl)-1-{[2-(pyrrolidin-1-yl)pyrimidin-5-yl]methyl}pyrazole-4-carboxamide]
